# Test system: Mycobacterium tuberculosis
# Experiment: Antimycobacterial activity against isoniazid-resistant Mycobacterium tuberculosis after 2 weeks by BACTEC 460 radiometric method
# Format: functional
# Conditions: 336 h
row,Compound,MIC [µM]
1,COc1cc2c(cc1OC)C1=NN(C(=O)Nc3ccc(C)cc3C)C(c3ccncc3)C1C2 (stereo unspecified),> 12.5
2,COc1cc2c(cc1OC)C1=NN(C(=O)Nc3ccc(C)cc3C)C(c3ccccc3Cl)C1C2 (stereo unspecified),10
3,COc1cc2c(cc1OC)C1=NN(C(=O)Nc3ccc(C)cc3C)C(c3ccc(F)cc3)C1C2 (stereo unspecified),12.5
4,COc1ccc(C2C3Cc4cc(OC)c(OC)cc4C3=NN2C(=O)Nc2ccc(C)cc2C)cc1OC (stereo unspecified),> 12.5
5,COc1cc2c(cc1OC)C1=NN(C(=O)Nc3ccc(C)cc3C)C(c3ccccc3)C1C2 (stereo unspecified),> 12.5
6,COc1ccc(C2C3Cc4cc(OC)c(OC)cc4C3=NN2C(=O)Nc2ccc(C)cc2C)cc1 (stereo unspecified),> 12.5
7,COc1cc2c(cc1OC)C1=NN(C(=O)Nc3c(C)cccc3C)C(c3ccncc3)C1C2 (stereo unspecified),> 12.5
8,COc1cc2c(cc1OC)C1=NN(C(=O)Nc3c(C)cccc3C)C(c3ccccc3Cl)C1C2 (stereo unspecified),12.5
9,COc1cc2c(cc1OC)C1=NN(C(=O)Nc3c(C)cccc3C)C(c3ccc(F)cc3)C1C2 (stereo unspecified),10
10,COc1ccc(C2C3Cc4cc(OC)c(OC)cc4C3=NN2C(=O)Nc2c(C)cccc2C)cc1OC (stereo unspecified),> 12.5
11,COc1cc2c(cc1OC)C1=NN(C(=O)Nc3c(C)cccc3C)C(c3ccccc3)C1C2 (stereo unspecified),> 12.5
12,COc1ccc(C2C3Cc4cc(OC)c(OC)cc4C3=NN2C(=O)Nc2c(C)cccc2C)cc1 (stereo unspecified),> 12.5
13,COc1cc2c(cc1OC)C1=NN(C(N)=S)C(c3ccncc3)C1C2 (stereo unspecified),10
14,COc1cc2c(cc1OC)C1=NN(C(N)=S)C(c3ccccc3Cl)C1C2 (stereo unspecified),10
15,COc1cc2c(cc1OC)C1=NN(C(N)=S)C(c3ccc(F)cc3)C1C2 (stereo unspecified),6.25
16,COc1ccc(C2C3Cc4cc(OC)c(OC)cc4C3=NN2C(N)=S)cc1OC (stereo unspecified),12.5
17,COc1cc2c(cc1OC)C1=NN(C(N)=S)C(c3ccccc3)C1C2 (stereo unspecified),12.5
18,COc1ccc(C2C3Cc4cc(OC)c(OC)cc4C3=NN2C(N)=S)cc1 (stereo unspecified),> 12.5
19,NNC(=O)c1ccncc1 [ISONIAZID],12.5
20,CO[C@H]1/C=C/O[C@@]2(C)Oc3c(C)c(O)c4c(O)c(c(/C=N/N5CCN(C)CC5)c(O)c4c3C2=O)NC(=O)/C(C)=C\C=C\[C@H](C)[C@H](O)[C@@H](C)[C@@H](O)[C@@H](C)[C@H](OC(C)=O)[C@@H]1C [RIFAMPIN],3.12

# Test system: Mycobacterium tuberculosis
# Experiment: Ratio of isoniazid MIC to compound MIC for isoniazid-resistant Mycobacterium tuberculosis
# Format: functional
# Conditions: not given
row,Compound,Ratio
1,COc1cc2c(cc1OC)C1=NN(C(N)=S)C(c3ccc(F)cc3)C1C2 (stereo unspecified),2

# Source: ChEMBL document CHEMBL1821612, “Discovery of novel antitubercular 3a,4-dihydro-3H-indeno[1,2-c]pyrazole-2-carboxamide/carbothioamide analogues” (Bioorg Med Chem Lett, 2011)
